Assay results reported in patent US9796704B2, “Substituted quinazolines as receptor-type kinase inhibitors” (Symphony Evolution, Inc., priority 2002, dated 2017).

Tests used:
EphB4 = EphB4 (Homo sapiens (Human), UniProt P54760); test: EphB4 kinase inhibition, 33P phosphoryl transfer assay (radiometric); assay type: biochemical
KDR = KDR (Homo sapiens (Human), UniProt P35968); test: KDR kinase inhibition, luciferase-coupled chemiluminescent assay (LCCA); details: read-out: KDR IC50
EGFR = EGFR (Homo sapiens (Human), UniProt P00533); test: EGFR kinase inhibition, luciferase-coupled chemiluminescent assay (LCCA); details: read-out: EGFR IC50
Description: (§1) Kinase activity and compound inhibition are investigated using one or more of the three assay formats described below. The ATP concentrations are selected near its Michaelis-Menten constant (KM) for each individual kinase. Dose-response experiments are performed at ten different inhibitor concentrations in a 384-well plate format. […] Typically H is close to unity.
(§2) In the LCCA assays, kinase activity is measured by the ATP consumption that is accurately measured by luciferase-coupled chemiluminescence. Greiner 384-well white clear bottom medium binding plates are used for LCCA. Briefly the kinase reaction is initiated by mixing compounds, ATP and kinases in a 20 μL volume. At the end of the kinase reaction, a 20 μL luciferase-luciferin mix is added and the chemiluminescent signal is read on a Wallac Victor^2 reader.

EphA2 = EphA2 (Homo sapiens (Human), UniProt P29317); test: EphA2 kinase inhibition, luciferase-coupled chemiluminescent assay (LCCA); details: read-out: EphA2 IC50
Sequence of EphA2 (P29317 598-890): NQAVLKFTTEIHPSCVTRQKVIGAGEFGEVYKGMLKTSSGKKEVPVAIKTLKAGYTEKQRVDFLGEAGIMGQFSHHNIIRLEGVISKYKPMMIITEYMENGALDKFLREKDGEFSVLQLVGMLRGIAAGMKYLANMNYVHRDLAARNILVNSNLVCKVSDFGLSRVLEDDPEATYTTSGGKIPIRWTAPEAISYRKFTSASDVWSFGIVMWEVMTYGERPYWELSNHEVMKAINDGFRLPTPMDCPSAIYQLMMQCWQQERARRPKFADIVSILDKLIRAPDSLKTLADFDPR
Description: as §1, §2

Sequence of EphB4 (P54760 605-890): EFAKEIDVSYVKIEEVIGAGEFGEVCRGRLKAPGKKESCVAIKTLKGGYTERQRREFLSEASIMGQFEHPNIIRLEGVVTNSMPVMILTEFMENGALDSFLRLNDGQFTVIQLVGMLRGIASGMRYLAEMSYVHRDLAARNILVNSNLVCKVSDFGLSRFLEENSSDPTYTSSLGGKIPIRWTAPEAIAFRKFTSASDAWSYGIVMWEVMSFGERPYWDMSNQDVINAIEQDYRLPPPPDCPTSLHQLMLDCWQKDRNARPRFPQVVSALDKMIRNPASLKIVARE
Sequence of KDR (P35968 807-1356): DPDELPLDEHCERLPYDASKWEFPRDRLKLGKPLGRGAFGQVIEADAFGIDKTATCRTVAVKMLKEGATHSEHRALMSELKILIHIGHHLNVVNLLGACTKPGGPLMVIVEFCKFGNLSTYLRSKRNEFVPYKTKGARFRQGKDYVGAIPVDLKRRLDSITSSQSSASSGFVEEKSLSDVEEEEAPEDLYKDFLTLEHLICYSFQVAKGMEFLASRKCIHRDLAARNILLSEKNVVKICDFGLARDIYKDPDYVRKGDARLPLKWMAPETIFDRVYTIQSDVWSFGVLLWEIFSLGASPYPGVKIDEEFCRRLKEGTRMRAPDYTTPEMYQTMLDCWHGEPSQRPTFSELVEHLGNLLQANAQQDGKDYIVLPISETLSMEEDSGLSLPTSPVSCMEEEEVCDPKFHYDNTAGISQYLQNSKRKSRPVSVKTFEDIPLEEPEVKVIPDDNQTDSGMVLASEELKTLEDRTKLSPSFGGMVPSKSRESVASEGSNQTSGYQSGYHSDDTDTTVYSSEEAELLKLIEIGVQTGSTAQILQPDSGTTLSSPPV

Row | Molecule | IC50 (EphB4) [nM] | IC50 (KDR) [nM] | IC50 (EGFR) [nM] | IC50 (EphA2) [nM]
1 | COc1cc2c(Nc3ccc(Cl)c(Cl)c3)ncnc2cc1OCc1nc(-c2ccncc2)cs1 [Example 203, N-(3,4-dichlorophenyl)-6-(methyloxy)-7-{[(4-pyridin-4-yl-1,3-thiazol-2-yl)methyl]oxy}quinazolin-4-amine] | < 50 | < 50 | < 50 | < 50
2 | COc1cc2c(Nc3cc(F)c(F)cc3F)ncnc2cc1O[C@@H]1CO[C@@H]2[C@H]1OC[C@H]2F [Example 99, 1,4:3,6-dianhydro-2-deoxy-2-fluoro-5-O-{6-(methyloxy)-4-[(2,4,5-trifluorophenyl)amino]quinazolin-7-yl}-D-iditol] | < 50 | < 50 | < 50 | < 50
3 | COc1cc2c(Nc3ccc(Cl)c(Cl)c3)ncnc2cc1OCC1CN(C)CCCO1 (centres unmarked) [Example 155, N-(3,4-dichlorophenyl)-7-{[(4-methyl-1,4-oxazepan-2-yl)methyl]oxy}-6-(methyloxy)quinazolin-4-amine] | < 50 | < 50 | < 50 | –
4 | COc1cc2c(Nc3ccc(Br)c(Cl)c3)ncnc2cc1O[C@H]1CO[C@H]2[C@@H]1OC[C@@H]2OC(F)F [Example 70, 1,4:3,6-dianhydro-2-O-[4-[(4-bromo-3-chlorophenyl)amino]-6-(methyloxy)quinazolin-7-yl]-5-O-(difluoromethyl)-L-iditol] | 50 to 1000 | < 50 | < 50 | 50 to 1000
5 | COc1cc2c(Nc3cc(F)c(Br)c(Cl)c3)ncnc2cc1O[C@@H]1CO[C@@H]2[C@H]1OC[C@H]2F [Example 104, 1,4:3,6-dianhydro-5-O-[4-[(4-bromo-3-chloro-5-fluorophenyl)amino]-6-(methyloxy)quinazolin-7-yl]-2-deoxy-2-fluoro-D-iditol] | < 50 | < 50 | < 50 | –
6 | COc1cc2c(Nc3ccc(Cl)c(Cl)c3)ncnc2cc1OCC1CN(C(=O)OC(C)(C)C)CCO1 (centres unmarked) [Example 148, 1,1-dimethylethyl 2-({[4-[(3,4-dichlorophenyl)amino]-6-(methyloxy)quinazolin-7-yl]oxy}methyl)morpholine-4-carboxylate] | < 50 | < 50 | < 50 | –
7 | COc1cc2c(Nc3ccc(Cl)c(Cl)c3Cl)ncnc2cc1O[C@@H]1CO[C@@H]2[C@H]1OC[C@H]2F [Example 106, 1,4:3,6-dianhydro-2-deoxy-2-fluoro-5-O-{6-(methyloxy)-4-[(2,3,4-trichlorophenyl)amino]quinazolin-7-yl}-D-iditol] | < 50 | < 50 | < 50 | < 50
8 | COc1cc2c(Nc3ccc(Br)cc3F)ncnc2cc1O[C@@H]1CO[C@@H]2[C@H]1OC[C@H]2F [Example 108, 1,4:3,6-dianhydro-5-O-[4-[(4-bromo-2-fluorophenyl)amino]-6-(methyloxy)quinazolin-7-yl]-2-deoxy-2-fluoro-D-iditol] | < 50 | < 50 | < 50 | < 50
9 | N-(3,4-dichlorophenyl)-6-(methyloxy)-7-{[(5-piperidin-2-yl-1,2,4-oxadiazol-3-yl)methyl]oxy}quinazolin-4-amine hydrochloride [Example 31] | < 50 | < 50 | < 50 | –
10 | COc1cc2c(Nc3ccc(Cl)c(Cl)c3)ncnc2cc1OCc1noc(-c2ccccc2)n1 [Example 235, N-(3,4-dichlorophenyl)-6-(methyloxy)-7-{[(5-phenyl-1,2,4-oxadiazol-3-yl)methyl]oxy}quinazolin-4-amine] | < 50 | < 50 | < 50 | 50 to 1000
11 | CCN1CCCC(c2nc(COc3cc4ncnc(Nc5ccc(Cl)c(Cl)c5)c4cc3OC)no2)C1 (centres unmarked) [Example 239, N-(3,4-dichlorophenyl)-7-({[5-(1-ethylpiperidin-3-yl)-1,2,4-oxadiazol-3-yl]methyl}oxy)-6-(methyloxy)quinazolin-4-amine] | 50 to 1000 | < 50 | < 50 | 50 to 1000
12 | COc1cc2c(Nc3cc(Cl)c(Br)cc3F)ncnc2cc1O[C@@H]1CO[C@@H]2[C@H]1OC[C@H]2F [Example 98, 1,4:3,6-dianhydro-5-O-[4-[(4-bromo-5-chloro-2-fluorophenyl)amino]-6-(methyloxy)quinazolin-7-yl]-2-deoxy-2-fluoro-D-iditol] | < 50 | < 50 | < 50 | < 50
13 | COc1cc2c(Nc3ccc(Br)c(Cl)c3)ncnc2cc1O[C@H]1CO[C@@H]2[C@@H](OC)[C@H](OC)O[C@@H]21 [Example 79, methyl 3,6-anhydro-5-O-[4-[(4-bromo-3-chlorophenyl)amino]-6-(methyloxy)quinazolin-7-yl]-2-O-methyl-alpha-L-idofuranoside] | < 50 | < 50 | < 50 | < 50
14 | COc1cc2c(Nc3ccc(Cl)c(Cl)c3)ncnc2cc1OCc1noc(C2CCN(C(=O)OC(C)(C)C)CC2)n1 [Example 197, 1,1-dimethylethyl 4-[3-({[4-[(3,4-dichlorophenyl)amino]-6-(methyloxy)quinazolin-7-yl]oxy}methyl)-1,2,4-oxadiazol-5-yl]piperidine-1-carboxylate] | < 50 | < 50 | < 50 | 50 to 1000
15 | COc1cc2c(Nc3ccc(Cl)c(Cl)c3)ncnc2cc1OCc1nc(CN2CCCN(C)CC2)cs1 [Example 210, N-(3,4-dichlorophenyl)-7-[({4-[(4-methyl-1,4-diazepan-1-yl)methyl]-1,3-thiazol-2-yl}methyl)oxy]-6-(methyloxy)quinazolin-4-amine] | < 50 | < 50 | < 50 | < 50
16 | COc1cc2c(Nc3ccc(Cl)c(Cl)c3)ncnc2cc1OCc1nc(N2CCN(C)CC2)no1 [Example 218, N-(3,4-dichlorophenyl)-6-(methyloxy)-7-({[3-(4-methylpiperazin-1-yl)-1,2,4-oxadiazol-5-yl]methyl}oxy)quinazolin-4-amine] | < 50 | < 50 | < 50 | 50 to 1000
17 | COc1cc2c(Nc3ccc(Cl)c(Cl)c3)ncnc2cc1OCc1cc(Br)cc(Br)c1 [Example 232, 7-{[(3,5-dibromophenyl)methyl]oxy}-N-(3,4-dichlorophenyl)-6-(methyloxy)quinazolin-4-amine] | 50 to 1000 | < 50 | < 50 | 50 to 1000
18 | COc1cc2c(Nc3ccc(Cl)c(Cl)c3F)ncnc2cc1O[C@@H]1CO[C@@H]2[C@H]1OC[C@H]2F [Example 97, 1,4:3,6-dianhydro-2-deoxy-5-O-[4-[(3,4-dichloro-2-fluorophenyl)amino]-6-(methyloxy)quinazolin-7-yl]-2-fluoro-D-iditol] | < 50 | < 50 | < 50 | –
19 | COc1cc2c(Nc3ccc(Cl)c(Cl)c3)ncnc2cc1OCc1noc(CN(C)C)n1 [Example 138, N-(3,4-dichlorophenyl)-7-[({5-[(dimethylamino)methyl]-1,2,4-oxadiazol-3-yl}methyl)oxy]-6-(methyloxy)quinazolin-4-amine] | < 50 | < 50 | < 50 | –
20 | COc1cc2c(Nc3ccc(Cl)c(Cl)c3)ncnc2cc1OCc1noc(C)c1-c1ccccc1 [Example 161, N-(3,4-dichlorophenyl)-6-(methyloxy)-7-{[(5-methyl-4-phenylisoxazol-3-yl)methyl]oxy}quinazolin-4-amine] | < 50 | < 50 | < 50 | –
21 | COc1cc2c(Nc3cc(F)cc(F)c3)ncnc2cc1O[C@@H]1CO[C@@H]2[C@H]1OC[C@H]2F [Example 94, 1,4:3,6-dianhydro-2-deoxy-5-O-[4-[(3,5-difluorophenyl)amino]-6-(methyloxy)quinazolin-7-yl]-2-fluoro-D-iditol] | < 50 | < 50 | < 50 | < 50
22 | COc1cc2c(Nc3ccc(Br)cc3Cl)ncnc2cc1O[C@@H]1CO[C@@H]2[C@H]1OC[C@H]2F [Example 96, 1,4:3,6-dianhydro-5-O-[4-[(4-bromo-2-chlorophenyl)amino]-6-(methyloxy)quinazolin-7-yl]-2-deoxy-2-fluoro-D-iditol] | < 50 | < 50 | < 50 | < 50
23 | COc1cc2c(Nc3cc(Cl)c(Cl)c(Cl)c3)ncnc2cc1O[C@@H]1CO[C@@H]2[C@H]1OC[C@H]2F [Example 107, 1,4:3,6-dianhydro-2-deoxy-2-fluoro-5-O-{6-(methyloxy)-4-[(3,4,5-trichlorophenyl)amino]quinazolin-7-yl}-D-iditol] | < 50 | < 50 | < 50 | < 50
24 | COc1cc2c(Nc3ccc(C(F)(F)F)cc3Br)ncnc2cc1O[C@@H]1CO[C@@H]2[C@H]1OC[C@H]2F [Example 125, 1,4:3,6-dianhydro-5-O-[4-{[2-bromo-4-(trifluoromethyl)phenyl]amino}-6-(methyloxy)quinazolin-7-yl]-2-deoxy-2-fluoro-D-iditol] | < 50 | < 50 | < 50 | < 50
25 | COc1cc2c(Nc3ccc(F)c(C(F)(F)F)c3)ncnc2cc1O[C@@H]1CO[C@@H]2[C@H]1OC[C@H]2F [Example 89, 1,4:3,6-dianhydro-2-deoxy-2-fluoro-5-O-[4-{[4-fluoro-3-(trifluoromethyl)phenyl]amino}-6-(methyloxy)quinazolin-7-yl]-D-iditol] | – | < 50 | < 50 | < 50
